We go through 55 compounds from US6632809B2, “Gyrase inhibitors and uses thereof” (Vertex Pharmaceuticals Incorporated, priority 2000, dated 2003).

Structures are written as SMILES. Converted amounts (≈) assume the structure as drawn. A value given as a limit tells only on which side of the number the result lay.

Sequence of DNA gyrase (374 kDa Gyr A2B2 subunit from Staphylococcus aureus) (P0A0K8 whole entry): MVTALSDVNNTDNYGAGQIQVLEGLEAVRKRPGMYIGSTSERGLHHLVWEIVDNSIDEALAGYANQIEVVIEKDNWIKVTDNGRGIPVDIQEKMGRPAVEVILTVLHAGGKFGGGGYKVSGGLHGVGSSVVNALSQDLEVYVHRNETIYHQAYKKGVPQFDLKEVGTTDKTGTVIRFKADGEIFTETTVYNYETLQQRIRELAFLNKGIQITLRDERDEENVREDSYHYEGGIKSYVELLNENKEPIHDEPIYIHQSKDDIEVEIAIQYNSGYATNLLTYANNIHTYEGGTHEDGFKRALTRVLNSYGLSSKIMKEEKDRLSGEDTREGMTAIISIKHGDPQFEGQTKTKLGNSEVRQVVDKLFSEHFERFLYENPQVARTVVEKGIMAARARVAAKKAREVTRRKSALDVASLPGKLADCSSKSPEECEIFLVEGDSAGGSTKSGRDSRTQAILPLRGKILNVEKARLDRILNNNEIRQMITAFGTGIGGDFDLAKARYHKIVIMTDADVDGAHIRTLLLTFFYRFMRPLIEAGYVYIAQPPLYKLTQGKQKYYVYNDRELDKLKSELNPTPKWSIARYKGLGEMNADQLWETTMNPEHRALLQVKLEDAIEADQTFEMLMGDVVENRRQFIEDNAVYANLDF
Sequence of DNA gyrase (374 kDa Gyr A2B2 subunit from Staphylococcus aureus) (P20831 whole entry, further chain): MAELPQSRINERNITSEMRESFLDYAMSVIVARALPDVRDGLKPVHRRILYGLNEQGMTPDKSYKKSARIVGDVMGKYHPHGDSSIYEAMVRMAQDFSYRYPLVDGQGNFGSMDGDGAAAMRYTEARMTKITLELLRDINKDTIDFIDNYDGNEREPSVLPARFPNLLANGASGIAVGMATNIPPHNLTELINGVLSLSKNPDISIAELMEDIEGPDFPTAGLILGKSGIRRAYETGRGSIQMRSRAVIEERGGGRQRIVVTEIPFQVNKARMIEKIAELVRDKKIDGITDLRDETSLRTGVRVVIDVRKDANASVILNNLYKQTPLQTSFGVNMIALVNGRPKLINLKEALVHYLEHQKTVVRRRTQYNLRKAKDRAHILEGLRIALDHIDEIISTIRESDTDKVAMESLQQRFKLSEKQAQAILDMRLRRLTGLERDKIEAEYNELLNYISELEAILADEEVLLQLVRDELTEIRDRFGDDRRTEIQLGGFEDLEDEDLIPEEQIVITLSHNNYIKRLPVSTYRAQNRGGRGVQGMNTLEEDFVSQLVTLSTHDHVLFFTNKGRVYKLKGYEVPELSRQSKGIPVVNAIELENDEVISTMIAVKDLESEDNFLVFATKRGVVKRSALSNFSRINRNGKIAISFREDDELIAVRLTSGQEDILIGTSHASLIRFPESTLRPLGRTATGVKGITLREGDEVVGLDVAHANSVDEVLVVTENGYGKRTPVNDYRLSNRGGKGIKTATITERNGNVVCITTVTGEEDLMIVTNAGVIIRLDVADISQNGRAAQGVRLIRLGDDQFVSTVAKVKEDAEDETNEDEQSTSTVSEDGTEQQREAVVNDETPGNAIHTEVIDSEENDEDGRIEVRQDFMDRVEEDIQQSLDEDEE

One experiment addresses DNA gyrase (374 kDa Gyr A2B2 subunit from Staphylococcus aureus) (Staphylococcus aureus, UniProt P0A0K8). The experiment can be described thus: Gyrase ATPase Assay. Format: biochemical. The conditions noted are these: 10 μM concentration; ATPase assay at 30° C., 0.9 mM ATP; average of duplicate values. How it is done:
The ATP hydrolysis activity of DNA gyrase was measure by coupling the production of ADP through pyruvate kinase/lactate dehydrogenase to the oxidation of NADH. This method has been described previously (Tamura and Gellert, 1990, J. Biol. Chem., 265, 21342).
ATPase assays are carried out at 30° C. in buffered solutions containing 100 mM TRIS pH 7.6, 1.5 mM MgCl2, 50 mM KCl. The coupling system contains (final concentrations) 2.5 mM phosphoenol pyruvate, 200 μM nicotinamide adenine dinucleotide (NADH), 1 mM DTT, […], and 10 ug/ml lactate dehydrogenase. 40 nanomolar enzyme (374 kDa Gyr A2B2 subunit from Staphylococcus aureus) and a DMSO solution of the inhibitor to a final concentration of 4% are added and the reaction mixture is allowed to incubate for 10 minutes at 30° C. The reaction is then started by the addition of ATP to a final concentration of 0.9 mM and the rate of NADH disappearance at 340 nanometers is measured over the course of 10 minutes. The percent inhibition values are determined from rate versus concentration profiles and are reported as the average of duplicate values.
The compound numbers correspond to the compound numbers in Table 1. Compounds having an activity designated as “A” provided a percent inhibition value below 50 percent; compounds having an activity designated as “B” provided a percent inhibition value between 50 and 75 percent; and compounds having an activity designated as “C” provided a percent inhibition value greater than 75 percent.
Regarding `CCNC(=S)Nc1nc2cc(-c3ccccc3)ccc2[nH]1` [Ia-90], the “Gyrase Inhibitory Activity (percent inhibition)” value was “C (provided a percent inhibition value greater than 75 percent)”.

Staying with this experiment, now noted: 10 μM concentration; ATPase assay at 30° C., 0.9 mM ATP; average of duplicate values; read-out: Gyrase Inhibitory Activity (percent inhibition).
For `CCNC(=O)Nc1nc2cc(-c3cccnc3)c(OC)cc2[nH]1` [Ia-42], the inhibition – broadly, the drop in the measured response relative to a control, in per cent – at 10 µM was over 75%.
Regarding `CCNC(=O)Nc1nc2cc(-c3cccnc3)cc(C)c2[nH]1` [Ia-58], the inhibition at 10 µM is over 75%.
As to `CCCCNc1nc2cc(-c3cccnc3)ccc2[nH]1` [Ia-73], the inhibition at 10 µM was under 50%.
For the compound `CCCNc1nc2cc(-c3cccnc3)ccc2[nH]1` [Ia-74], the inhibition at 10 µM is under 50%.
Turning to `COC(=O)CCNc1nc2cc(-c3cccnc3)ccc2[nH]1` [Ia-75], the inhibition at 10 µM was under 50%.
On to `COC(=O)Nc1nc2cc(-c3cnc(NCC(=O)OC(C)(C)C)nc3)ccc2[nH]1` [Ia-76], for which the inhibition at 10 µM was over 75%.
For `CCOC(=O)Nc1ncc(-c2ccc3[nH]c(NC(=O)OCC)nc3c2)cn1` [Ia-77], the inhibition at 10 µM is over 75%.
As for `CN(C)CCn1c(N)nc2cc(-c3cccnc3)ccc21` [Ia-78], the inhibition at 10 µM was under 50%.
Turning to `CNc1nc2cc(-c3cccnc3)ccc2n1CCN(C)C` [Ia-79], the inhibition at 10 µM was under 50%.
Consider `CCOC(=O)Nc1nc2cc(-c3cnc(NCC(=O)O)nc3)ccc2[nH]1` [Ia-80], for which the inhibition at 10 µM is over 75%.
Still for that read-out and setting: the same measure for `CCOC(=O)Nc1nc2cc(-c3cccc(C(=O)OC)c3)ccc2[nH]1` [Ia-81]: 50 to 75%.
As to `CCCC(=O)Nc1nc2cc(-c3ccccc3)ccc2[nH]1` [Ia-82], the inhibition at 10 µM is under 50%.
Still for that read-out and setting: the same measure for `CCNC(=O)Nc1nc2cc(-c3ccccc3)ccc2[nH]1` [Ia-84, 1-Ethyl-3-(5-phenyl-1H-benzoimidazol-2-yl)-urea]: over 75%.
For `CN1CCCC1C(=O)Nc1nc2cc(-c3ccccc3)ccc2[nH]1` (stereo not shown) [Ia-85], the inhibition at 10 µM is under 50%.
On to `CCOC(=O)Nc1nc2cc(-c3cnc(NCCNC(=O)OC(C)(C)C)nc3)ccc2[nH]1` [Ia-86], for which the inhibition at 10 µM was over 75%.
With `CCOC(=O)Nc1cncc(-c2ccc3[nH]c(NC(=O)OCC)nc3c2)c1` [Ia-87], the inhibition at 10 µM is over 75%.
For `CCOC(=O)Nc1nc2cc(-c3cnc(NCCN)nc3)ccc2[nH]1` [Ia-88], the inhibition at 10 µM is over 75%.
On to `CCNC(=O)Nc1nc2cc(-c3ccccc3)cc(Br)c2[nH]1` [Ia-89], for which the inhibition at 10 µM is over 75%.
Same read-out and setting: the same measure for `CCOC(=O)Nc1nc2cc(-c3cnc(N4CCN(S(C)(=O)=O)CC4)nc3)ccc2[nH]1` [Ia-91]: under 50%; for `CCNC(=O)Nc1nc2cc(-c3cnc(SC)nc3)ccc2[nH]1` [Ia-92]: over 75%; for `CCOC(=O)Nc1nc2cc(-c3cnc(NC(COC(C)(C)C)C(=O)OC(C)(C)C)nc3)ccc2[nH]1` (stereo not shown) [Ia-93]: over 75%.
On to `CCOC(=O)Nc1nc2cc(-c3cnc(NC(CO)C(=O)O)nc3)ccc2[nH]1` (stereo not shown) [Ia-94], for which the inhibition at 10 µM was over 75%.
As to `CCN/C(=N\C)Nc1nc2cc(-c3ccccc3)ccc2[nH]1` [Ia-97], the inhibition at 10 µM is under 50%.
As to `CCNC(=O)Nc1nc2cc(-c3cnc(NCc4cccnc4)nc3)ccc2[nH]1` [Ia-98], the inhibition at 10 µM is over 75%.
For the compound `CCNC(=O)Nc1nc2cc(-c3cnc(NC(C)COC)nc3)ccc2[nH]1` (stereo not shown) [Ia-100], the inhibition at 10 µM is over 75%.
As for `CCNC(=N)Nc1nc2cc(-c3ccccc3)ccc2[nH]1` [Ia-101], the inhibition at 10 µM was under 50%.
Consider `CCNC(=O)Nc1nc2cc(-c3cnc(NCCCOC)nc3)ccc2[nH]1` [Ia-102], for which the inhibition at 10 µM was over 75%.
For the compound `CCNC(=O)Nc1nc2cc(-c3cccnc3)cc(F)c2[nH]1` [Ia-103], the inhibition at 10 µM is over 75%.
On to `CCNC(=O)Nc1nc2cc(-c3cnc(NCCC4CCCN4C)nc3)ccc2[nH]1` (stereo not shown) [Ia-106], for which the inhibition at 10 µM is over 75%.
On to `CCNC(=O)Nc1nc2cc(-c3cccnc3)cc(OC)c2[nH]1` [Ia-108], for which the inhibition at 10 µM is over 75%.
Consider `CCNC(=O)Nc1nc2cc(-c3cnc(N4CC(C)CC(C)C4)nc3)ccc2[nH]1` (stereo not shown) [Ia-109], for which the inhibition at 10 µM was over 75%.
The same measure, in the same setting: then `CCNC(=O)Nc1nc2cc(-c3cnc(OC)nc3)c(OC)cc2[nH]1` [Ia-112], with over 75%; and `CCNC(=O)Nc1nc2cc(-c3cnc(N4CCN(C(C)=O)CC4)nc3)ccc2[nH]1` [Ia-113], with over 75%.
For `CCOC(=O)Nc1nc2cc(-c3cncc(N)c3)ccc2[nH]1` [Ia-115], the inhibition at 10 µM was under 50%.
Turning to `CCNC(=O)Nc1nc2cc(-c3cnc(N4CCN(S(C)(=O)=O)CC4)nc3)ccc2[nH]1` [Ia-124], the inhibition at 10 µM lay in the range of 50 to 75%.
On to `CCNC(=O)Nc1nc2cc(-c3cnc(N4CCC(O)CC4)nc3)ccc2[nH]1` [Ia-125], for which the inhibition at 10 µM was over 75%.
Take `CCNC(=O)Nc1nc2cc(-c3cnc(N)nc3)c(OC)cc2[nH]1` [Ia-126]: the inhibition at 10 µM is over 75%.
For `CCCN(CC1CC1)c1ncc(-c2ccc3[nH]c(NC(=O)NCC)nc3c2)cn1` [Ia-127], the inhibition at 10 µM is over 75%.
On to `CCNC(=O)Nc1nc2cc(-c3cnc(NCc4ccc5c(c4)OCO5)nc3)ccc2[nH]1` [Ia-128], for which the inhibition at 10 µM was over 75%.
For `CCNC(=O)Nc1nc2cc(-c3cnc(N4CCC(O)C4)nc3)ccc2[nH]1` (stereo not shown) [Ia-129], the inhibition at 10 µM was over 75%.
In the case of `CCNC(=O)Nc1nc2cc(-c3cnc(N4CCCC4COC)nc3)ccc2[nH]1` (stereo not shown) [Ia-130], the inhibition at 10 µM was over 75%.
The same measure, in the same setting: the same measure for `CCNC(=O)Nc1nc2cc(-c3cnc(N)nc3)c(F)cc2[nH]1` [Ia-131]: over 75%.
Regarding `CCNC(=O)Nc1nc2cc(-c3ccc(OC)nc3)ccc2[nH]1` [Ia-132], the inhibition at 10 µM is over 75%.
Still for that read-out and setting: the same measure for `CCNC(=O)Nc1nc2cc(-c3cccnc3)cc(Cl)c2[nH]1` [Ia-134]: over 75%.
With `CCNC(=O)Nc1nc2cc(-c3ccc(CNC(=O)OC(C)(C)C)cc3)ccc2[nH]1` [Ia-135], the inhibition at 10 µM is over 75%.
With `CCNC(=O)Nc1nc2cc(-c3ccc(F)nc3)ccc2[nH]1` [Ia-136], the inhibition at 10 µM is over 75%.
Same read-out and setting: the same measure for `CCNC(=O)Nc1nc2cc(-c3ccc(CN(C(=O)OC(C)(C)C)C(C)(C)C)nc3)ccc2[nH]1` [Ia-143]: over 75%; for `CCNC(=O)Nc1nc2cc(-c3cccc(F)c3)ccc2[nH]1` [Ia-155]: under 50%; for `CCNC(=O)Nc1nc2cc(-n3cc(C(=O)N4CCOCC4)cn3)ccc2[nH]1` [Ia-172]: over 75%.
For the compound `CCNC(=O)Nc1nc2cc(N3CCOCC3)ccc2[nH]1` [Ia-176], the inhibition at 10 µM is under 50%.

The next experiment relates to test bacteria. The experiment can be described thus: Susceptibility Testing in Liquid Media (MIC assay). The class given is cell-based. The settings on record: broth dilution, MHB, 35° C. overnight (16 to 20 hr); organism not given. The method, then:
Susceptibility Testing in Liquid Media
Compounds of this invention were also tested for antimicrobial activity by susceptibility testing in liquid media. Such assays were performed within the guidelines of the latest NCCLS document governing such practices: “M7-A5 Methods for dilution Antimicrobial Susceptibility Tests for Bacteria that Grow Aerobically; Approved Standard—Fifth Edition (2000)”. Other publications such as “Antibiotics in Laboratory Medicine” (Edited by V. Lorian, Publishers Williams and Wilkins, 1996) provide essential practical techniques in laboratory antibiotic testing. Essentially, several discrete bacterial colonies (3 to 7) from a freshly streaked plate were transferred to an appropriate rich broth medium such as MHB, supplemented where appropriate for the more fastidious organisms. This was grown overnight to high density followed by a 1 or 2-thousand-fold dilution to give an inoculation density of between 5×10^5 and 5×10^6 CFU per mL. Alternatively, the freshly picked colonies can be incubated at 37° C. for about 4 to 8 hrs until the culture equals or exceeds a turbidity of a 0.5 McFarland standard (approximately 1.5×10^8 cells per mL) and diluted to give the same CFU per mL as above. In a more convenient method, the inoculum was prepared using a commercially available mechanical device (the BBL PROMPT System) that involves touching five colonies directly with a wand, containing crosshatch grooves at its bottom, followed by suspension of the bacteria in an appropriate volume of saline. Dilution to the appropriate inoculum cell density was made from this cell suspension. The broth used for testing consists of MHB supplemented with 50 mg per L of Ca^2+ and 25 mg per L of Mg^2+. Standard dilution panels of control antibiotics were made and stored as in the NCCLS standard M7-A5, the dilution range typically being in the 128 μg per mL to 0.015 μg per mL (by 2-fold serial dilution). The test compounds were dissolved and diluted fresh for experimentation on the same day; the same or similar ranges of concentration as above being used. The test compounds and controls were dispensed into a multiwell plate and test bacteria added such that the final inoculation was approximately 5×10^4 CFU per well and the final volume was 100 μL. The plates were incubated at 35° C. overnight (16 to 20 hr) and checked by eye for turbidity or quantitated with a multiwell plate reader. […] Such determinations were also compared to the appropriate tables contained in the above two publications to ensure that the range of antibacterial activity is within the acceptable range for this standardized assay.
The compound numbers correspond to the compound numbers in Table 1.
(In general: In broth dilution the organism is exposed to a series of concentrations in liquid medium.)
Regarding `CCNC(=O)Nc1nc2cc(-c3cccnc3)cc(O)c2[nH]1` [Ia-169], the “MIC (minimal inhibitory concentration) activity level” value is “B (provided an MIC of between 10 and 40 μg/mL)”.

Still in this experiment, the particulars now being: broth dilution, MHB, 35° C. overnight (16 to 20 hr); organism not given; read-out: MIC (minimal inhibitory concentration) activity level.
As for `CCNC(=O)Nc1nc2cc(-c3cccnc3)c(OC)cc2[nH]1` [Ia-42], the MIC was 10 to 40 µg/mL (≈ 32.1 to 128 µM).
`CCNC(=O)Nc1nc2cc(-c3cccnc3)cc(C)c2[nH]1` [Ia-58]: the MIC is under 10 µg/mL.
On to `CCNC(=S)Nc1nc2cc(-c3ccccc3)ccc2[nH]1` [Ia-90], for which the MIC is under 10 µg/mL.
On the same count and under the same terms, then `CCNC(=O)Nc1nc2cc(-c3cnc(SC)nc3)ccc2[nH]1` [Ia-92], with under 10 µg/mL; and `CCNC(=O)Nc1nc2cc(-c3cnc(NCc4cccnc4)nc3)ccc2[nH]1` [Ia-98], with 10 to 40 µg/mL (≈ 25.7 to 103 µM).
For the compound `CCNC(=O)Nc1nc2cc(-c3cnc(OC)nc3)c(OC)cc2[nH]1` [Ia-112], the MIC is under 10 µg/mL.
As to `CCNC(=O)Nc1nc2cc(-n3cc(C(=O)O)c4ncccc43)ccc2[nH]1` [Ia-196], the MIC was in the range of 10 to 40 µg/mL (≈ 27.4 to 110 µM).
Consider `CCNC(=O)Nc1nc2cc(-c3ccc(OCCOCC)nc3)ccc2[nH]1` [Ia-197], for which the MIC was 10 to 40 µg/mL (≈ 27.1 to 108 µM).
For `CCNC(=O)Nc1nc2nc(N3CCC(N)C3)ccc2[nH]1` (stereo not shown) [Ia-198], the MIC lay in the range of 10 to 40 µg/mL (≈ 34.6 to 138 µM).
